Measurements published in patent US10925851B2 (Regents of the University of Minnesota, priority 2018, dated 2021).
Where “and” joins values, the source holds several entries; their conditions need not be identical. Equal values may be shown once. Read-outs that look alike come from different tables or passages of the source.

Experiments:
[1] = target: T1, Neprilysin (NEP) (Homo sapiens, UniProt P08473); assay: Neprilysin inhibition assay (Mca-[…](Dpn) FRET substrate); assay type: biochemical; conditions: for IC50: dose response, 3x dilutions from 100 μM; for inhibition at 10 µM: inhibitor 10 μM, read-out: NEP @ 10 μM (percent inhibition)
T1 construct: purchased Enzo Life Sciences
Procedure: Single concentration studies at 10 μM: Neprilysin inhibition assays were performed as described previously. The substrate Mca-[…](Dpn) and endopeptidase NEP were purchased from Enzo Life Sciences. […] Plate was mixed with a plate shaker at 1500 rpm for 30 seconds. The reaction was started with the addition of 6 μM of the FRET substrate and mixed for another 30 seconds at 1500 rpm. Mca fluorescence is quenched by Dpn until cleavage at Phe by NEP. The accumulation of the Mca was measured by exciting at 320 nm and reading the fluorescence at 405 nm on a Molecular Devices M5e plate reader for 40 minutes at room temperature. Percent inhibition is calculated in GraphPad Prism software using slopes in the linear range for each inhibitor at 10 μM.
Dose-Response Studies for NEP: Neprilysin inhibition assays were performed as described previously. The substrate Mca-[…](Dpn) and endopeptidase NEP were purchased from Enzo Life Sciences. Briefly, 0.5 nM NEP was incubated with 0.5 μL inhibitor. Compounds were tested at 3× dilutions from 100 μM final concentration in 50 mM HEPES pH 6.5 in 50 μL total volume in a black 384-well plate. Plate was mixed with a plate shaker at 1500 rpm for 30 seconds. The reaction was started with the addition of 6 μM of the FRET substrate and mixed for another 30 seconds at 1500 rpm. Mca fluorescence is quenched by Dpn until cleavage at Phe by NEP. The accumulation of the Mca was measured by exciting at 320 nm and reading the fluorescence at 405 nm on a Molecular Devices M5e plate reader for 40 minutes at room temperature. Steady state velocities were used to determine IC50 values by fitting the velocities vs. inhibitor concentration to the sigmoidal concentration-response curve (variable slope) using GraphPad Prism.

[2] = target: T2, Aminopeptidase N (APN) (Homo sapiens, UniProt P15144); assay: Aminopeptidase N enzyme assay (Ala-AMC substrate, fluorescence); assay type: biochemical; conditions: for IC50: dose response, 3x dilutions from 100 μM; for inhibition at 10 µM: inhibitor 10 μM, read-out: APN @ 10 μM (percent inhibition)
T2 construct: purchased R&D Systems
Procedure: Single concentration studies at 10 μM: Aminopeptidase N assays were performed as described previously. Aminopeptidase N was purchased from R&D Systems. Amino-4-methylcoumarin (Ala-AMC) was purchased from Bachem. Briefly, 0.1 μg/μL APN was incubated with 1 μL of 1 mM inhibitor in 50 mM Tris buffer, pH 7.5, in 100 μL volume in a black 384-well plate in duplicate. The reaction was started with the addition of Ala-AMC substrate at a final concentration of 100 μM. The cleavage accumulation AMC was measured by exciting at 380 nm and reading the fluorescence at 460 nm on a Molecular Devices SpectraMax i3 plate reader for 20 min at room temperature. Percent inhibition is calculated in GraphPad Prism software using slopes in the linear range for each inhibitor at 10 μM.
Dose-Response Studies for APN: Aminopeptidase N enzyme assays were performed as described previously.^26 Briefly, 0.1 μg/μL APN was incubated with 1 μL inhibitor in 50 mM Tris buffer, pH 7.5, in 50 μL volume in a black 384-well plate in duplicate. Compounds were tested at 3× dilutions from 100 μM final concentration. The reaction was started with the addition of Ala-AMC substrate at a final concentration of 100 μM. The accumulation of AMC was measured by exciting at 380 nm and reading the fluorescence at 460 nm on a Molecular Devices SpectraMax i3 plate reader for 30 min at room temperature. Steady state velocities were used to determine IC50 values by fitting the velocities vs. inhibitor concentration to the sigmoidal concentration-response curve (variable slope) using GraphPad Prism.

[3] = test system: mice; assay: Combination therapy with morphine, isobolographic analysis in tail-flick assay; conditions: for Dose Reduction Index (DRI) Morphine: in combination with tosedostat, 50% efficacy; for ED50: Mus musculus, sc
[4] = test system: mice; assay: Co-administration of opioid antagonist naloxone in hot-plate and tail-flick assays; assay type: in vivo, mouse; conditions: naloxone s.c. 5 mg/Kg or i.c.v. 5 μg per mouse
Procedure: Naloxone dissolved in saline was either administered subcutaneously (s.c.; dosage: 5 mg/Kg) via an injection to the interscapular skin, or it was given intracerebroventricularly (5 μg per mouse).
Naloxone is a broad-spectrum opioid receptor antagonist. It is known to interact with, mu- (μ-), delta- (δ-), and kappa- (κ-) opioid receptors, with highest affinity for the μ receptors. […] Naloxone dissolved in saline was delivered subcutaneously (s.c.) via an injection to the interscapular skin.
5 mg/Kg naloxone dissolved in saline was administered subcutaneously (s.c.) via an injection to the interscapular skin. Analgesic efficacy for various time-points was determined in hot-plate and tail-flick assays as detailed above.

T1 sequence (P08473 whole entry, species assumed): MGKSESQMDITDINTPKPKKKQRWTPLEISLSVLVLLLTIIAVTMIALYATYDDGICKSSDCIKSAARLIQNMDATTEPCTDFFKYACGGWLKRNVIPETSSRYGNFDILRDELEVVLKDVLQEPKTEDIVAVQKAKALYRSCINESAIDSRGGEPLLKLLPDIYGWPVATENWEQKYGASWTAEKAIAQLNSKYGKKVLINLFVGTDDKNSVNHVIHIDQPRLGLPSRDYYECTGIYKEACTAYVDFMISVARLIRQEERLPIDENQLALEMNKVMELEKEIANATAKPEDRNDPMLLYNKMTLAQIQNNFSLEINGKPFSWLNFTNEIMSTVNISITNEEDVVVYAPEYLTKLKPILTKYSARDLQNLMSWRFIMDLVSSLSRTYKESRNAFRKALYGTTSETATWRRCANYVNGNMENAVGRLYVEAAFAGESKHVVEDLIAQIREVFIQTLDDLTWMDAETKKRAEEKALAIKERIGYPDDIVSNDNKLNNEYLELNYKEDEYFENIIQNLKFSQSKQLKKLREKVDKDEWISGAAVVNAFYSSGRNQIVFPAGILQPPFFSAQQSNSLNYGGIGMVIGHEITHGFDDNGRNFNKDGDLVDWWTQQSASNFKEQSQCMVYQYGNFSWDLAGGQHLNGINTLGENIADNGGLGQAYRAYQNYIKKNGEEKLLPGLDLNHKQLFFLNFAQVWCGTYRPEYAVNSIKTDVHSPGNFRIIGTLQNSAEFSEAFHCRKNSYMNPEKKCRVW
T2 sequence (P15144 whole entry): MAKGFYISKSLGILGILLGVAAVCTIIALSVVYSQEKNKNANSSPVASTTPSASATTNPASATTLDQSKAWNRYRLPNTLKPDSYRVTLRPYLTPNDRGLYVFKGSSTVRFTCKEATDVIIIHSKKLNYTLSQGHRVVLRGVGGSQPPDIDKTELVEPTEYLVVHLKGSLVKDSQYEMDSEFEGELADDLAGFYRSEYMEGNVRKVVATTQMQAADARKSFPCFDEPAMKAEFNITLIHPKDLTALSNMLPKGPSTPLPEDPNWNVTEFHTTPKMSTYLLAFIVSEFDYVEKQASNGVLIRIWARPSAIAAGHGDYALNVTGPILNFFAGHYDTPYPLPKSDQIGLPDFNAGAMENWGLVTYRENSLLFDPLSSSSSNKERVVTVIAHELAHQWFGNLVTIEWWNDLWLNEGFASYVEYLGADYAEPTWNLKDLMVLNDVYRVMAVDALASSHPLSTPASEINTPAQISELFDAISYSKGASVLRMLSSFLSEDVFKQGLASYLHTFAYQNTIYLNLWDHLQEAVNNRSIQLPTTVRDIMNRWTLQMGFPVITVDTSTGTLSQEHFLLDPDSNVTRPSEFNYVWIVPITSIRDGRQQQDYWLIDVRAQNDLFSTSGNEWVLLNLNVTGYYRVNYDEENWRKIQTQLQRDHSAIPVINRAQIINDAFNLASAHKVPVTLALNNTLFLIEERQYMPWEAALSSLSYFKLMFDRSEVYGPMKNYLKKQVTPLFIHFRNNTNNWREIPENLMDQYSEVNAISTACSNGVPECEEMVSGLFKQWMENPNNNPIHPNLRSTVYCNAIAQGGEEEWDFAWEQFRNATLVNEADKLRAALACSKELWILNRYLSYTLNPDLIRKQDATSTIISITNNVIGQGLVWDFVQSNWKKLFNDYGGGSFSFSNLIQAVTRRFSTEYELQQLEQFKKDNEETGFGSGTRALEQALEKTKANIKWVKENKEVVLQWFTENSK

| SMILES | activity against NEP (in words) [1] | IC50 [1] [µM] | inhibition at 10 µM [1] [%] | activity against APN (in words) [2] | IC50 [2] | inhibition at 10 µM [2] [%] | further results |
| --- | --- | --- | --- | --- | --- | --- | --- |
| CNC(=O)[C@H](Cc1ccccc1)NC(=O)[C@H](CC(C)C)[C@H](CSc1cccs1)C(=O)NO [Batimastat] | inhibit both APN and NEP | 4.48 | 60 | inhibit both APN and NEP | 0.21 µM and 0.212 µM | – | – |
| CC(C)C[C@H](NC(=O)[C@@H](O)[C@H](N)Cc1ccccc1)C(=O)O [Bestatin] | no activity against NEP | > 100 | 0 | inhibiting only APN | – | 77.6 | – |
| CN1CC[C@]23c4c5ccc(O)c4O[C@H]2[C@@H](O)C=C[C@H]3[C@H]1C5 [Morphine] | – | – | – | – | – | – | Dose Reduction Index (DRI) Morphine ([3]; 15 min): 4.47; Dose Reduction Index (DRI) Morphine ([3]; 30 min): 1.96; Dose Reduction Index (DRI) Morphine ([3]; 45 min): 2.43; Dose Reduction Index (DRI) Morphine ([3]; 60 min): 17.0; Dose Reduction Index (DRI) Morphine ([3]; 60 min, listed as morphine): 17; ED50 ([3]; 0.25 h, read-out: Morphine ED50 (±SEM)): 6.29 ± 12.7 mg/kg; ED50 ([3]; 0.5 h, read-out: Morphine ED50 (±SEM)): 3.52 ± 7.2 mg/kg; ED50 ([3]; 0.75 h, read-out: Morphine ED50 (±SEM)): 3.87 ± 2.04 mg/kg; ED50 ([3]; 1 h, read-out: ED50, given alone): 2.5 to 3 mg/kg; ED50 ([3]; 1 h, read-out: Morphine ED50 (±SEM)): 30 ± 204 mg/kg |
| C=CCN1CC[C@]23c4c5ccc(O)c4O[C@H]2C(=O)CC[C@@]3(O)[C@H]1C5 [Naloxone] | – | – | – | – | – | – | effect on latency, naloxone only groups [4]: no effect on latency |
| O=C(O)CNC(=O)C(CS)Cc1ccccc1 (centres unmarked) [Thiorphan] | inhibited only NEP | – | 90 | no activity against APN | > 100 µM | 0 | – |
